{"source": "patent US20050089558A1", "about": "(Alamo Pharmaceuticals, LLC, priority 2003, published 2005)", "key": {"[1]": {"system": "opioid receptors", "settings": "in words; cited from earlier work"}, "[2]": {"settings": "cited from earlier work; for half-life: after a single oral dose of 100 mg tramadol, 2-compartmental elimination; for accumulation: during multiple dose treatment with tramadol"}, "[3]": {"system": "abdominal muscle contractions (writhing) induced by 0.6% acetic acid", "experiment": "acetic acid writhing test of analgesia in mice", "format": "in vivo, Crl:CFW (SW) BR mice", "settings": "0.6% acetic acid i.p. 30 min later, male mice; for Ave. # of writhes: 15-minute count", "procedure": "In the animal studies presented in Examples 5-7, tramadol and dextro-propoxyphene were administered neat (undiluted), or were diluted with diluted with saline (i.e. 0.9% Sodium Chloride for injection) in order to achieve the desired dose volumes. Fresh solutions were prepared for each concentration (of each compound) prior to administration.\nAcetic acid was used to assess experimental pain or “writhing.” Specifically, thirty minutes after dosing, the writhing-induction agent (0.6% Acetic Acid) was administered to all experimental groups by intraperitoneal injection at a dose volume of 10 mL/kg.\nCrl:CFW® (SW) BR mice, from Charles River Laboratories were used as the animal model to test the analgesia of the tramadol/propoxyphene co-formulations. The test animals were approximately 4 weeks of age on arrival and each animals weighed approximately 22 to 28 g within 3 days of arrival. […] Animals considered suitable for study were weighed prior to treatment and randomized, by sex, into treatment groups using a standard, by weight, block randomization procedure.\nThe protocols employed assessed the qualitative and quantitative changes in abdominal muscle contractions (writhing) induced after the […] administration of a noxious chemical stimulus, 0.6% acetic acid, in mice. The degree and amount of contractile abdominal activity is a measure of “experimentally-induced pain”. A decrease in the amount of writhing with prior administration of a test article is an experimental measure of “analgesia.”\nDose-response functions were generated for each of the two (2) test articles (tramadol, dextro-propoxyphene,). ED50 values for analgesic activity were estimated using a least squares linear regression analysis procedure using PHARM/PCS or SAS.\nThe test article, positive control, and vehicle were administered to all groups as a single subcutaneous injection in the scapular region on the back at a dose volume of 10 mL/kg and at the dose levels as presented in Table 1 below.\nThirty minutes after dosing, the writhing-induction article, 0.6% acetic acid, was administered to all groups by intraperitoneal injection at a dose volume of 10 mL/kg.\nImmediately after administration of the writhing-induction article, animals were placed into a poly-observation chamber and a 15-minute evaluation period was initiated. During the 15-minute evaluation period, the number of “writhes” that occurred were recorded. For scoring purposes, a “writhe” was indicated by whole body stretching or contraction of the abdomen, further described as waves of contraction of the abdominal musculature, twisting and turning of the trunk, and hind-limb extension."}, "[4]": {"system": "NMDA receptor", "settings": "in words, a recent study; cited from earlier work"}, "[5]": {"settings": "in vivo; cited from earlier work"}, "[6]": {"biological_target": "mu receptors of the CNS (Homo sapiens, UniProt P35372)", "sequence (P35372 whole entry)": "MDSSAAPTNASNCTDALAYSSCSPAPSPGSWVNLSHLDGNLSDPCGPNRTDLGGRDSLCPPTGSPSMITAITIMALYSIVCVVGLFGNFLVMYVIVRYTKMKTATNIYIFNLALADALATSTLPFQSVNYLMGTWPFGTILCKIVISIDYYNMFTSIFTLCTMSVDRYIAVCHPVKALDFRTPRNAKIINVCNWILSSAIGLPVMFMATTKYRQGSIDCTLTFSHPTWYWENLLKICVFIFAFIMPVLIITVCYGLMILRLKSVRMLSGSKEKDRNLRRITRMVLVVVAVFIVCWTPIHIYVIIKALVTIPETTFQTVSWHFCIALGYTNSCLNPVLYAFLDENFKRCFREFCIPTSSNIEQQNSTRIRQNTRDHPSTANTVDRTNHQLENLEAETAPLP", "settings": "relative to morphine; cited from earlier work"}, "[7]": {"settings": "in words; cited from earlier work"}}, "note": "Where two headings read alike, the source gives them in different places.", "data": [{"compound": "CN(C)CC1CCCCC1(O)c1cccc(O)c1", "note": "(centres unmarked) [M1 derivative, O-demethyl tramadol]", "values": [{"measurement": "affinity for opioid receptors", "setting": "[1]", "result": "higher affinity for opioid receptors than the parent drug"}, {"measurement": "half-life", "setting": "[2]", "result": 9, "unit": "h"}, {"measurement": "accumulation", "setting": "[2]", "result": "approximately 2 fold"}]}, {"compound": "CCC(=O)OC(Cc1ccccc1)(c1ccccc1)C(C)CN(C)C", "note": "(stereo not drawn) [Propoxyphene, 2-Butanol, 4-(dimethylamino)-3-methyl-1,2-diphenyl-, propionate, (+)-]", "values": [{"measurement": "Ave. # of writhes", "setting": "[3]; 1.0 mg/kg single s.c. dose", "result": 59.4}, {"measurement": "% Analgesia", "setting": "[3]; 1.0 mg/kg single s.c. dose", "result": "−12.29", "unit": "%"}, {"measurement": "Ave. # of writhes", "setting": "[3]; 3.2 mg/kg single s.c. dose", "result": 45.4}, {"measurement": "% Analgesia", "setting": "[3]; 3.2 mg/kg single s.c. dose", "result": 14.18, "unit": "%"}, {"measurement": "Ave. # of writhes", "setting": "[3]; 10.0 mg/kg single s.c. dose", "result": 26.7}, {"measurement": "% Analgesia", "setting": "[3]; 10.0 mg/kg single s.c. dose", "result": 49.53, "unit": "%"}, {"measurement": "activity at the NMDA receptor", "setting": "[4]", "result": "antagonist activity"}, {"measurement": "half-life", "setting": "[5]", "result": "6 to 12", "unit": "h"}]}, {"compound": "COc1cccc([C@]2(O)CCCC[C@H]2CN(C)C)c1", "note": "(racemic) [Tramadol, cyclohexanol, 2-((dimethylamino)methyl)-1-(3-methoxyphenyl)-, cis-(+−)-]", "values": [{"measurement": "Ave. # of writhes", "setting": "[3]; 0.32 mg/kg single s.c. dose", "result": 54.6}, {"measurement": "% Analgesia", "setting": "[3]; 0.32 mg/kg single s.c. dose", "result": "−3.21", "unit": "%"}, {"measurement": "Ave. # of writhes", "setting": "[3]; 1.0 mg/kg single s.c. dose", "result": 55.1}, {"measurement": "% Analgesia", "setting": "[3]; 1.0 mg/kg single s.c. dose", "result": "−4.16", "unit": "%"}, {"measurement": "Ave. # of writhes", "setting": "[3]; 3.2 mg/kg single s.c. dose", "result": 31.7}, {"measurement": "% Analgesia", "setting": "[3]; 3.2 mg/kg single s.c. dose", "result": 40.08, "unit": "%"}, {"measurement": "affinity for mu receptors of the CNS, times lower than that of morphine", "setting": "[6]", "result": 6000, "unit": "times"}, {"measurement": "affinity for opioid receptors", "setting": "[1]", "result": "low affinity"}, {"measurement": "half-life", "setting": "[2]", "result": 5.1, "unit": "h"}, {"measurement": "duration of the analgesic effect", "setting": "[2]; after a single oral dose of tramadol 100 mg", "result": "about 6 hours"}, {"measurement": "bioavailability", "setting": "[2]; after oral administration", "result": 68, "unit": "%"}, {"measurement": "time to peak serum concentrations", "setting": "[2]; after oral administration", "result": "≤ 2", "unit": "h"}, {"measurement": "accumulation", "setting": "[2]", "result": "approximately 2 fold"}, {"measurement": "time to peak plasma levels", "setting": "[2]; following oral administration", "result": "≤ 2", "unit": "h"}]}, {"compound": "CCC(=O)O[C@](Cc1ccccc1)(c1ccccc1)[C@H](C)CNC", "note": "[norpropoxyphene]", "values": [{"measurement": "analgesic properties", "setting": "[7]", "result": "very weak analgesic properties"}]}]}
